Laboratory results: patent US20120142705A1, “ISATIN AND OXINDOLE COMPOUNDS” (priority 2010, published 2012)

Each molecule was assayed against T1, Recombinant human liver GK1 (GST-GK) (Homo sapiens, UniProt P35557) (assay: In vitro glucokinase activity, G6PDH-coupled spectrophotometric assay). Conditions: 5 mM D-glucose, 30° C., pH 7.1.
T1 construct: made in house; host or cells: E. coli
T1 sequence (P35557 1-466 isoform P35557-2): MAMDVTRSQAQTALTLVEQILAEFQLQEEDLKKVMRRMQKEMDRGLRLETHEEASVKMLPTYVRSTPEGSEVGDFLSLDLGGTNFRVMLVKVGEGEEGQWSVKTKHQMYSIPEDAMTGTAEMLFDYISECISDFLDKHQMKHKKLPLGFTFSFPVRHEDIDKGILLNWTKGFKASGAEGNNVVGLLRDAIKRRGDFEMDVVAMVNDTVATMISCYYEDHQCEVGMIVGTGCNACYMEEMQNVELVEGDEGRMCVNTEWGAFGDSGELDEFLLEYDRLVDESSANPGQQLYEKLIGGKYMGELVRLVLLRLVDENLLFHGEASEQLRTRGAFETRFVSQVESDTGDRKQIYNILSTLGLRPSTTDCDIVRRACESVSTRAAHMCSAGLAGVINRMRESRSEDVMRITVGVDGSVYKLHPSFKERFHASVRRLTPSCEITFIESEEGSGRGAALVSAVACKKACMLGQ
Type: biochemical
Method in brief: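 GST-fused human liver GK1 from E. coli, run at 30° C. in pH 7.1 HEPES with 5 mM glucose, 1 mM ATP and 10% DMSO, coupled via G6PDH to NADH. OD340 rate measured after enzyme start; SC1.5 is the activator concentration raising activity 50% over DMSO control.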
`O=C1C(=O)N(C(CC2CCCC2)C(=O)Nc2ccccn2)c2cc(Cl)ccc21` (centres unmarked) [Example 118, 2-(6-chloro-2,3-dioxo-2,3-dihydro-indol-1-yl)-3-cyclopentyl-N-pyridin-2-yl-propionamide] was tested, and the “SC1.5 (concentration of activator that produced a 50% increase in the activity of GK)” value was 0.23 µM. For `Cn1ccc(NC(=O)C(CC2CCCC2)N2C(=O)Cc3ccc(Br)cc32)n1` (centres unmarked) [Example 136, 2-(6-Bromo-2-oxo-2,3-dihydro-indol-1-yl)-3-cyclopentyl-N-(1-methyl-1H-pyrazol-3-yl)-propionamide], the “SC1.5 (concentration of activator that produced a 50% increase in the activity of GK)” value was 0.88 µM. In the case of `CC(C)CC(C(=O)Nc1nccs1)N1C(=O)Cc2cc(Cl)ccc21` (centres unmarked) [Example 105, 2-(5-Chloro-2-oxo-2,3-dihydro-indol-1-yl)-4-methyl-pentanoic acid thiazol-2-ylamide], the “SC1.5 (concentration of activator that produced a 50% increase in the activity of GK)” value is reported as 6.74 µM. For `COc1ccc2c(c1)CC(=O)N2C(CC1CCCC1)C(=O)Nc1ccn(C)n1` (centres unmarked) [Example 50, 3-Cyclopentyl-2-(5-methoxy-2-oxo-2,3-dihydro-indol-1-yl)-N-(1-methyl-1H-pyrazol-3-yl)-propionamide], the “SC1.5 (concentration of activator that produced a 50% increase in the activity of GK)” value was 8.39 µM. `O=C(Nc1cnccn1)C(CC1CCCC1)N1C(=O)Cc2c(Cl)cccc21` (centres unmarked) [Example 24, 2-(4-Chloro-2-oxo-2,3-dihydro-indol-1-yl)-3-cyclopentyl-N-pyrazin-2-yl-propionamide] was tested, and the “SC1.5 (concentration of activator that produced a 50% increase in the activity of GK)” value was 2.66 µM. `CC(C)CC(C(=O)Nc1nccs1)N1C(=O)Cc2ccccc21` (centres unmarked) [Example 11, 4-Methyl-2-(2-oxo-2,3-dihydro-indol-1-yl)-pentanoic acid thiazol-2-ylamide] was tested, and the “SC1.5 (concentration of activator that produced a 50% increase in the activity of GK)” value was 16.22 µM. With `CC(C)CC(C(=O)Nc1cnccn1)N1C(=O)Cc2cc(OC(F)(F)F)ccc21` (centres unmarked) [Example 44, 4-Methyl-2-(2-oxo-5-trifluoromethoxy-2,3-dihydro-indol-1-yl)-pentanoic acid pyrazin-2-ylamide] the “SC1.5 (concentration of activator that produced a 50% increase in the activity of GK)” value was 3.67 µM. For `Cn1ccc(NC(=O)C(CC2CCCC2)N2C(=O)Cc3ccc(F)cc32)n1` (centres unmarked) [Example 126, 3-Cyclopentyl-2-(6-fluoro-2-oxo-2,3-dihydro-indol-1-yl)-N-(1-methyl-1H-pyrazol-3-yl)-propionamide], the “SC1.5 (concentration of activator that produced a 50% increase in the activity of GK)” value was 1.86 µM. For `COc1ccc2c(c1)CC(=O)N2C(CC(C)C)C(=O)Nc1ccccn1` (centres unmarked) [Example 57, 2-(5-Methoxy-2-oxo-2,3-dihydro-indol-1-yl)-4-methyl-pentanoic acid pyridin-2-ylamide], the “SC1.5 (concentration of activator that produced a 50% increase in the activity of GK)” value was 13.89 µM. With `CC(C)CC(C(=O)Nc1cnccn1)N1C(=O)C(=O)c2ccc(Cl)cc21` (centres unmarked) [Example 112, 2-(6-Chloro-2,3-dioxo-2,3-dihydro-indol-1-yl)-4-methyl-pentanoic acid pyrazin-2-ylamide] the “SC1.5 (concentration of activator that produced a 50% increase in the activity of GK)” value was 4.85 µM. `O=C(Nc1nccs1)C(CC1CCCC1)N1C(=O)Cc2ccc(F)cc21` (centres unmarked) [Example 125, 3-Cyclopentyl-2-(6-fluoro-2-oxo-2,3-dihydro-indol-1-yl)-N-thiazol-2-yl-propionamide] was tested, and the “SC1.5 (concentration of activator that produced a 50% increase in the activity of GK)” value was 0.45 µM. With `CC(C)CC(C(=O)Nc1ccccn1)N1C(=O)Cc2cc(OC(F)(F)F)ccc21` (centres unmarked) [Example 43, 4-Methyl-2-(2-oxo-5-trifluoromethoxy-2,3-dihydro-indol-1-yl)-pentanoic acid pyridin-2-ylamide] the “SC1.5 (concentration of activator that produced a 50% increase in the activity of GK)” value was 1.41 µM. With `Cc1ccc2c(c1)CC(=O)N2C(CC(C)C)C(=O)Nc1ccccn1` (centres unmarked) [Example 90, 4-Methyl-2-(5-methyl-2-oxo-2,3-dihydro-indol-1-yl)-pentanoic acid pyridin-2-ylamide] the “SC1.5 (concentration of activator that produced a 50% increase in the activity of GK)” value was 12.84 µM. With `O=C(Nc1cnccn1)C(CC1CCCC1)N1C(=O)Cc2ccc(Br)cc21` (centres unmarked) [Example 133, 2-(6-Bromo-2-oxo-2,3-dihydro-indol-1-yl)-3-cyclopentyl-N-pyrazin-2-yl-propionamide] the “SC1.5 (concentration of activator that produced a 50% increase in the activity of GK)” value was 0.34 µM.
